# Measured values from patent publication US20150141336A1, “Pancreatic Peptide Compounds and Use” (Novo Nordisk A/S, priority 2012, published 2015).
# Numbered stars: 1 amine (or outer) side, 2 acyl side, 3 side chain; on linkers, the order of the positions; unused ones are H or OH. Side chains are listed from the residue outwards. Peptide text beside a SMILES is read from it. * marks the point of attachment. C18 diacid = O=C(O)CCCCCCCCCCCCCCCCC(=O)*; γGlu = O=C(O)[C@H](CCC(=O)[*:2])N[*:1]; AEEA = NCCOCCOCC(=O)O
# Experiment: Assay (II) PK i.v. minipig, in vivo half-life
# Design: species or system Göttingen mini-pigs
# Conditions: male, Göttingen, minipig, iv, Half-life minipig, Assay (II)
# Experimental: An assay useful for measuring the pharmacokinetic (PK) profile of the PP peptide is the following mini-pig PK assay.
# Five male Göttingen mini-pigs weighing approximately 18 to 22 kg from Ellegaard Göttingen Minipigs NS, Denmark are included in the study. The mini-pigs have two central venous catheters inserted which are used for intra venous (i.v.) dosing and blood sampling. The test compound is dissolved in 50 mM K2HPO4, 0.05% tween 80, pH=8.0 to a concentration of 180 nmol/ml. For comparison a control compound, such as human PP(1-36), may be administered. The pigs are dosed with 6 nmol test compound/kg body weight. Blood samples are taken at the following time points: pre-dose, 30 minutes, 1, 2, 4, 8, 24, 48, 72, 96, 120, 168 and 240 hours post dosing. The blood samples were collected into test tubes containing EDTA buffer for stabilization and kept on ice for max. 20 minutes before centrifugation. The centrifugation procedure to separate plasma may be: 4° C., approx. 2500 g for 10 minutes. Plasma is collected and immediately transferred to Micronic tubes stored at −20° C. until assayed.
# The test compounds were assayed in plasma by Turbulent Flow Chromatography coupled to Liquid Chromatography with subsequent Tandem Mass Spectrometric Detection (TFC/LC/MS/MS). Positive mode ionization and Multiple Reaction Monitoring (MRM) of a multiple protonated species fragmented to a singly charged ion was employed for selectivity. The selectivity of the method allows multiple compounds to be quantified in one sample.
# The concentrations of the test compound in samples of unknown concentration were calculated using the peak area as a function of amount. Calibration graphs based on plasma samples spiked with the analyte were constructed by regression analysis. Typical dynamic range for standard assay was 1-2000 nmol/I. The method performance was assured by co-assaying quality control (QC) samples in duplicate at three concentration levels.
# Stock and working solutions of analytes were prepared in plasma and incubated by 37° C. for 1 hour.
# Sample Preparation: 40.0 μl EDTA-plasma was added 160 μl 50% methanol, 1% formic acid, then vortexed and centrifuged at 16457 g at 4° C. for 20 minutes. The supernatant was transferred to a 96 well plate, plates incubated with 0.4% BSA, 37° C. for ½ hour. Injection volume was 25 μl.
# The analysis was carried out on a Sciex API 3000 mass spectrometer (MDS/Sciex, Concord, ON, Canada) using a TurbolonSpray interface. The TFC/LC system consisted of two Flux Rheos 2000 quaternary pumps, a Cohesive VIM module (Cohesive Technologies, Franklin, Mass., USA) and a CTC LC/PAL auto sampler (CTC Analytics, Zingen, Switzerland). The centrifuge employed was a HettichMikro 22R (A. Hettich, Tuttlingen, Germany). For sample clean up a TurboFlow C8 column (0.5×50 mm) (Cohesive Technologies/Thermofisher) was used and the LC separation was done on a Proteo 4 μm column (2.0×50 mm) (Phenomenex, Torrance, Calif., USA). Eluents were isocratic and gradient combinations of methanol, acetonitril, Milli-Q water and formic acid.
# Non-compartmental analysis (NCA): Plasma concentration-time profiles are analyzed by non-compartmental pharmacokinetics analysis (NCA) using WinNonlin Professional 5.0 (Pharsight Inc., Mountain View, Calif., USA). NCA is performed using the individual plasma concentration-time profiles from each animal.
row,half-life [h],Structure (SMILES)
1,71,CC[C@H](C)[C@H](NC(=O)[C@H](Cc1ccc(O)cc1)NC(=O)[C@H](CCCNC(=N)N)NC(=O)[C@H](CCCNC(=N)N)NC(=O)[C@H](CC(C)C)NC(=O)[C@H](CC(=O)O)NC(=O)[C@H](C)NC(=O)[C@H](C)NC(=O)[C@H](Cc1ccc(O)cc1)NC(=O)[C@H](CCC(N)=O)NC(=O)[C@H](CCCCNC(=O)COCCOCCNC(=O)COCCOCCNC(=O)CC[C@H](NC(=O)CCCCCCCCCCCCCCCCC(=O)O)C(=O)O)NC(=O)[C@H](CCSC)NC(=O)[C@H](CCC(N)=O)NC(=O)[C@H](CCC(=O)O)NC(=O)[C@@H]1CCCN1C(=O)[C@@H](NC(=O)[C@H](C)NC(=O)[C@H](CC(N)=O)NC(=O)[C@H](CC(=O)O)NC(=O)CNC(=O)[C@@H]1CCCN1C(=O)[C@H](Cc1ccc(O)cc1)NC(=O)[C@@H](NC(=O)[C@@H]1CCCN1C(=O)[C@H](CCC(=O)O)NC(=O)[C@H](CC(C)C)NC(=O)[C@@H]1CCCN1)C(C)C)[C@@H](C)O)C(=O)N[C@@H](CC(N)=O)C(=O)N[C@@H](CCSC)C(=O)N[C@@H](CC(C)C)C(=O)N[C@H](C(=O)N[C@@H](CCCNC(=N)N)C(=O)N1CCC[C@H]1C(=O)N[C@@H](CCCNC(=N)N)C(=O)N[C@@H](Cc1ccc(O)cc1)C(N)=O)[C@@H](C)O [Compound P] (H-PLEPVYPGDNATPEQMK([AEEA-AEEA-γGlu-C18 diacid])QYAADLRRYINMLTRPRY-NH2; N-terminus and C-terminus assumed)
2,54,CC[C@H](C)[C@H](NC(=O)[C@H](Cc1ccc(O)cc1)NC(=O)[C@H](CCCNC(=N)N)NC(=O)[C@H](CCCNC(=N)N)NC(=O)[C@H](CC(C)C)NC(=O)[C@H](CC(=O)O)NC(=O)[C@H](C)NC(=O)[C@H](C)NC(=O)[C@H](Cc1ccc(O)cc1)NC(=O)[C@H](CCC(N)=O)NC(=O)[C@H](C)NC(=O)[C@H](CCSC)NC(=O)[C@H](CCC(N)=O)NC(=O)[C@H](CCC(=O)O)NC(=O)[C@@H]1CCCN1C(=O)[C@@H](NC(=O)[C@H](C)NC(=O)[C@H](CC(N)=O)NC(=O)[C@H](CC(=O)O)NC(=O)CNC(=O)[C@@H]1CCCN1C(=O)[C@H](Cc1ccc(O)cc1)NC(=O)[C@@H](NC(=O)[C@H](CCCCNC(=O)COCCOCCNC(=O)COCCOCCNC(=O)CC[C@H](NC(=O)CCCCCCCCCCCCCCCCC(=O)O)C(=O)O)NC(=O)[C@H](CCC(=O)O)NC(=O)[C@@H](N)CC(C)C)C(C)C)[C@@H](C)O)C(=O)N[C@@H](CC(N)=O)C(=O)N[C@@H](CCSC)C(=O)N[C@@H](CC(C)C)C(=O)N[C@H](C(=O)N[C@@H](CCCNC(=N)N)C(=O)N1CCC[C@H]1C(=O)N[C@@H](CCCNC(=N)N)C(=O)N[C@@H](Cc1ccc(O)cc1)C(N)=O)[C@@H](C)O [Compound BK]
3,48,CC[C@H](C)[C@H](NC(=O)[C@H](Cc1ccc(O)cc1)NC(=O)[C@H](CCCNC(=N)N)NC(=O)[C@H](CCCCNC(=O)COCCOCCNC(=O)COCCOCCNC(=O)CC[C@H](NC(=O)CCCCCCCCCCCCCCCCC(=O)O)C(=O)O)NC(=O)[C@H](CC(C)C)NC(=O)[C@H](CC(=O)O)NC(=O)[C@H](C)NC(=O)[C@H](C)NC(=O)[C@H](Cc1ccc(O)cc1)NC(=O)[C@H](CCC(N)=O)NC(=O)[C@H](C)NC(=O)[C@H](CCSC)NC(=O)[C@H](CCC(N)=O)NC(=O)[C@H](CCC(=O)O)NC(=O)[C@@H]1CCCN1C(=O)[C@@H](NC(=O)[C@H](C)NC(=O)[C@H](CC(N)=O)NC(=O)[C@H](CC(=O)O)NC(=O)CNC(=O)[C@@H]1CCCN1C(=O)[C@H](Cc1ccc(O)cc1)NC(=O)[C@@H](NC(=O)[C@@H]1CCCN1C(=O)[C@H](CCC(=O)O)NC(=O)[C@@H](N)CC(C)C)C(C)C)[C@@H](C)O)C(=O)N[C@@H](CC(N)=O)C(=O)N[C@@H](CCSC)C(=O)N[C@@H](CC(C)C)C(=O)N[C@H](C(=O)N[C@@H](CCCNC(=N)N)C(=O)N1CCC[C@H]1C(=O)N[C@@H](CCCNC(=N)N)C(=O)N[C@@H](Cc1ccc(O)cc1)C(N)=O)[C@@H](C)O [Compound AQ] (H-LEPVYPGDNATPEQMAQYAADLK([AEEA-AEEA-γGlu-C18 diacid])RYINMLTRPRY-NH2; N-terminus and C-terminus assumed)
